For data set [1] the following is noted: volume median diameter. The method, then: This is synonymous with volume median diameter, and it was measured using a laser diffraction and scattering particle diameter analyzer, the LMS-24 SK Laser Micron Sizer (Seishin Enterprise Co. Ltd.) and expressed as a cumulative 50% volume particle diameter.
For data set [2] the following is noted: width of approximately 300 crystals. The method, then:
The crystals were observed and photographed using a VH-8000 digital microscope (Keyence Corporation). The width of approximately 300 crystals was measured and calculations performed.

In the case of `N[C@@H](CCC(=O)N[C@@H](CS)C(=O)NCC(=O)O)C(=O)O` [Commercial product A, glutathione], the Average particle diameter in data set [1] amounted to 9 μm.

In turn, `N[C@@H](CCC(=O)N[C@@H](CS)C(=O)NCC(=O)O)C(=O)O` [commercial product B, glutathione] gave an Average width in data set [2] of 3 μm.

These data come from patent US20100099847A1 (Kyowa Hakko Bio Co., Ltd., priority 2006, published 2010).
